Legend:
[1] = system: Spodoptera littoralis (Egyptian cotton leaf worm); test: Example B1: Activity against Spodoptera littoralis, sprayed cotton leaf discs; type: in vivo; details: foliar, 72 h, application rate 200 ppm, L1 larvae, 3 days after infestation
Method: Example B1: Activity against Spodoptera littoralis (Egyptian cotton leaf worm) Cotton leaf discs were placed onto agar in 24-well microtiter plates and sprayed with aqueous test solutions prepared from 10′000 ppm DMSO stock solutions. After drying the leaf discs were infested with five L1 larvae. The samples were assessed for mortality, anti-feeding effect, and growth inhibition in comparison to untreated samples 3 days after infestation. Control of Spodoptera littoralis by a test sample is given when at least one of the categories mortality, anti-feedant effect, and growth inhibition is higher than the untreated sample.

[2] = system: Plutella xylostella (Diamond Back Moth); test: Example B3: Activity against Plutella xylostella, artificial diet; type: in vivo; details: 120 h, application rate 200 ppm, L2 larvae, 5 days after infestation, read-out: effect in at least one of the two categories (mortality or growth inhibition)
Method: Example B3: Activity Against Plutella xylostella (Diamond Back Moth)
(§1) 24-well microtiter plates with artificial diet were treated with aqueous test solutions prepared from 10′000 ppm DMSO stock solutions by pipetting. After drying, the plates were infested with L2 larvae (10 to 15 per well). The samples were assessed for mortality and growth inhibition in comparison to untreated samples 5 days after infestation.

[3] = system: Diabrotica Balteata (Corn Root Worm); test: Example B4: Activity against Diabrotica balteata, sprayed maize sprouts; type: in vivo; details: 96 h, application rate 200 ppm, L2 larvae, 4 days after infestation, read-out: effect in at least one of the two categories (mortality or growth inhibition)
Method: Example B4: Activity Against Diabrotica Balteata (Corn Root Worm)
as §1, with “Maize sprouts, placed onto an agar layer in 24-well” for “24-well”, “plates” for “plates with artificial diet”, “spraying.” for “pipetting.”, “(6” for “(10”, “10” for “15”, “4” for “5”

[4] = system: Myzus persicae (Green Peach Aphid); test: Example B5: Activity against Myzus persicae, sprayed sunflower leaf discs; type: in vivo; details: foliar, 144 h, application rate 200 ppm, mixed-age aphids, 6 days after infestation
Method: Example B5: Activity Against Myzus persicae (Green Peach Aphid)
Sunflower leaf discs were placed onto agar in a 24-well microtiter plate and sprayed with aqueous test solutions prepared from 10′000 ppm DMSO stock solutions. After drying, the leaf discs were infested with an aphid population of mixed ages. The samples were assessed for mortality 6 days after infestation.

[5] = system: Euschistus heros (Neotropical Brown Stink Bug); test: Example B8: Activity against Euschistus heros, sprayed soybean leaves; type: in vivo; details: 120 h, application rate 200 ppm, N2 nymphs, 5 days after infestation, read-out: effect in at least one of the two categories (mortality or growth inhibition)
Method: Example B8: Activity Against Euschistus heros (Neotropical Brown Stink Bug)
Soybean leaves on agar in 24-well microtiter plates were sprayed with aqueous test solutions prepared from 10′000 ppm DMSO stock solutions. After drying the leaves were infested with N2 nymphs. The samples were assessed for mortality and growth inhibition in comparison to untreated samples 5 days after infestation.

[6] = system: Spodoptera littoralis (Egyptian cotton leaf worm); test: Example B2: Activity against Spodoptera littoralis, systemic via lettuce roots in agar; type: in vivo; details: 144 h, test rate 12.5 ppm, uptake by lettuce roots from agar, 6 days after infestation, read-out: effect in at least one of the three categories (mortality, anti-feeding, or growth inhibition)
From the text: Example B2: Activity against Spodoptera littoralis (Egyptian cotton leaf worm) Test compounds were applied by pipette from 10′000 ppm DMSO stock solutions into 24-well plates and mixed with agar. Lettuce seeds were placed onto the agar and the multi well plate was closed by another plate which contained also agar. After 7 days the compound was absorbed by the roots and the lettuce grew into the lid plate. The lettuce leaves were then cut off into the lid plate. Spodoptera eggs were pipetted through a plastic stencil onto a humid gel blotting paper and the lid plate was closed with it. The samples were assessed for mortality, anti-feedant effect and growth inhibition in comparison to untreated samples 6 days after infestation.

melting point | SMILES | percent control (mortality, anti-feedant effect or growth inhibition) at 200 ppm [1] | percent effect (mortality or growth inhibition) at 200 ppm [2] | percent effect (mortality or growth inhibition) at 200 ppm [3] | mortality at 200 ppm [4] | percent effect (mortality or growth inhibition) at 200 ppm [5] | percent effect (mortality, anti-feeding or growth inhibition) at 12.5 ppm [6]
 | CCS(=O)(=O)c1ccc(-n2cccn2)nc1-n1cc2cnc(C(F)(F)F)cc2n1 [Compound P8] | ≥ 80% | ≥ 80% | ≥ 80% | ≥ 80% |  | 
194 to 196 °C | CCS(=O)(=O)c1ccc(-c2cccnc2)nc1-n1nc2cc(C(F)(F)F)ncc2c1Cl [Compound P17, 3-chloro-2-[3-ethylsulfonyl-6-(3-pyridyl)-2-pyridyl]-6-(trifluoromethyl)pyrazolo[4,3-c]pyridine] |  |  |  |  |  | 
 | CCS(=O)(=O)c1ccc(-c2cccc(F)c2)nc1-n1cc2cnc(C(F)(F)F)cc2n1 [Compound P7] | ≥ 80% |  |  |  |  | 
 | CCS(=O)(=O)c1ccc(-n2cc(C#N)cn2)nc1-n1cc2cnc(C(F)(F)F)cc2n1 [Compound P5] | ≥ 80% | ≥ 80% | ≥ 80% |  | ≥ 80% | 
 | CCS(=O)(=O)c1ccc(-n2cncn2)nc1-n1nc2cc(C(F)(F)F)ncc2c1C [Compound P22, 2-[3-ethylsulfonyl-6-(1,2,4-triazol-1-yl)-2-pyridyl]-3-methyl-6-(trifluoromethyl)pyrazolo[4,3-c]pyridine] | ≥ 80% | ≥ 80% | ≥ 80% | ≥ 80% |  | ≥ 80%
172 to 174 °C | CCS(=O)(=O)c1ccc(-n2cnc(SC)n2)nc1-n1cc2cnc(C(F)(F)F)cc2n1 [Compound P27] |  |  |  |  |  | 
 | CCS(=O)(=O)c1cc(Cl)c(N)nc1-n1cc2cnc(C(F)(F)F)cc2n1 [Compound P19, 3-chloro-5-ethylsulfonyl-6-[6-(trifluoromethyl)pyrazolo[4,3-c]pyridin-2-yl]pyridin-2-amine] | ≥ 80% | ≥ 80% | ≥ 80% | ≥ 80% | ≥ 80% | ≥ 80%
 | CCS(=O)(=O)c1cc(Cl)c(NC)nc1-n1cc2cnc(C(F)(F)F)cc2n1 [Compound P18] | ≥ 80% | ≥ 80% | ≥ 80% | ≥ 80% | ≥ 80% | 
 | CCS(=O)(=O)c1ccc(-n2cncn2)nc1-n1nc2cc(C(F)(F)F)ncc2c1Cl [Compound P2, 3-chloro-2-[3-ethylsulfonyl-6-(1,2,4-triazol-1-yl)-2-pyridyl]-6-(trifluoromethyl)pyrazolo[4,3-c]pyridine] | ≥ 80% |  | ≥ 80% |  | ≥ 80% | 
246 to 248 °C | CCS(=O)(=O)c1ccc(NO)nc1-n1nc2cc(C(F)(F)F)ncc2c1Cl [Compound P32] |  |  |  |  |  | 
 | CCS(=O)(=O)c1ccc(-n2cc(C#N)cn2)nc1-n1nc2cc(C(F)(F)F)ncc2c1Cl [Compound P10, 1-[6-[3-chloro-6-(trifluoromethyl)pyrazolo[4,3-c]pyridin-2-yl]-5-ethylsulfonyl-2-pyridyl]pyrazole-4-carbonitrile] | ≥ 80% | ≥ 80% |  |  |  | 
 | CCS(=O)(=O)c1ccc(-c2cccnc2)nc1-n1cc2cnc(C(F)(F)F)cc2n1 [Compound P12, 2-[3-ethylsulfonyl-6-(3-pyridyl)-2-pyridyl]-6-(trifluoromethyl)pyrazolo[4,3-c]pyridine] | ≥ 80% | ≥ 80% | ≥ 80% |  |  | 
264 to 266 °C | CCS(=O)(=O)c1ccc(-n2ccc(C#N)n2)nc1-n1nc2cc(C(F)(F)F)ncc2c1Cl [Compound P21] |  |  |  |  |  | 
 | CCS(=O)(=O)c1ccc(-n2cncn2)nc1-n1cc2cnc(C(F)(F)F)cc2n1 [Compound P3, 2-[3-ethylsulfonyl-6-(1,2,4-triazol-1-yl)-2-pyridyl]-6-(trifluoromethyl)pyrazolo[4,3-c]pyridine] | ≥ 80% | ≥ 80% | ≥ 80% | ≥ 80% | ≥ 80% | ≥ 80%
256 to 258 °C | CCS(=O)(=O)c1ccc(N(C)C)nc1-n1cc2cnc(C(F)(F)F)cc2n1 [Compound P30] |  |  |  |  |  | 
 | CCS(=O)(=O)c1cc(Cl)c(OC)nc1-n1cc2cnc(C(F)(F)F)cc2n1 [Compound P24, 2-(5-chloro-3-ethylsulfonyl-6-methoxy-2-pyridyl)-6-(trifluoromethyl)pyrazolo[4,3-c]pyridine] | ≥ 80% | ≥ 80% | ≥ 80% | ≥ 80% | ≥ 80% | 
 | CCOc1nc(-n2cc3cnc(C(F)(F)F)cc3n2)c(S(=O)(=O)CC)cc1Cl [Compound P23] | ≥ 80% | ≥ 80% | ≥ 80% | ≥ 80% | ≥ 80% | 
166 to 168 °C | CCS(=O)(=O)c1ccc(N(C)C)nc1-n1nc2cc(C(F)(F)F)ncc2c1Cl [Compound P29] |  |  |  |  |  | 
 | CCS(=O)(=O)c1ccc(-n2cnc(Cl)n2)nc1-n1nc2cc(C(F)(F)F)ncc2c1Cl [Compound P4] | ≥ 80% |  |  |  |  | 
 | CCS(=O)(=O)c1ccc(N)nc1-n1nc2cc(C(F)(F)F)ncc2c1Cl [Compound P14, 6-[3-chloro-6-(trifluoromethyl)pyrazolo[4,3-c]pyridin-2-yl]-5-ethylsulfonyl-pyridin-2-amine] |  |  |  | ≥ 80% |  | 
 | CCS(=O)(=O)c1ccc(-c2cccc(F)c2)nc1-n1nc2cc(C(F)(F)F)ncc2c1Cl [Compound P6] | ≥ 80% | ≥ 80% |  |  |  | 
247 to 249 °C | CCS(=O)(=O)c1ccc(-n2cnc(S(C)(=O)=O)n2)nc1-n1cc2cnc(C(F)(F)F)cc2n1 [Compound P28] |  |  |  |  |  | 
207 to 209 °C | CCS(=O)(=O)c1ccc(-c2cc(F)cc(F)c2)nc1-n1cc2cnc(C(F)(F)F)cc2n1 [Compound P1, 2-[6-(3,5-difluorophenyl)-3-ethylsulfonyl-2-pyridyl]-6-(trifluoromethyl)pyrazolo[4,3-c]pyridine] |  |  |  |  |  | 
118 to 120 °C | CCS(=O)(=O)c1ccc(-n2cnc(SC)n2)nc1-n1nc2cc(C(F)(F)F)ncc2c1Cl [Compound P26] |  |  |  |  |  | 
257 to 259 °C | CCS(=O)(=O)c1ccc(NC)nc1-n1nc2cc(C(F)(F)F)ncc2c1Cl [Compound P13] |  |  |  |  |  | 
 | CCS(=O)(=O)c1ccc(-c2cncnc2)nc1-n1cc2cnc(C(F)(F)F)cc2n1 [Compound P9] | ≥ 80% | ≥ 80% | ≥ 80% | ≥ 80% | ≥ 80% | 
 | CCS(=O)(=O)c1ccc(-n2ccc(C#N)n2)nc1-n1cc2cnc(C(F)(F)F)cc2n1 [Compound P20] | ≥ 80% | ≥ 80% | ≥ 80% |  | ≥ 80% | 

Source: patent US20190031667A1, “PESTICIDALLY ACTIVE HETEROCYCLIC DERIVATIVES WITH SULPHUR CONTAINING SUBSTITUENTS” (SYNGENTA PARTICIPATIONS AG, priority 2016, published 2019)
